# Results from PubChem BioAssay (NCI).
# Where “and” joins values, the source holds several entries; their conditions need not be identical. Equal values may be shown once.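 Results reflect a 48-hour exposure of cells in 96-well plates to compound at five concentrations. At the GI50, growth is halved. TGI denotes the concentration required for complete inhibition of growth.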
# Key:
# Assay in all cases: NCI anticancer screen, dose series, 48 h
# [1] = tested on: NCI-H226 lung
# [2] = tested on: T-47D breast
# [3] = tested on: BT-549 breast
# [4] = tested on: HOP-62 NSCLC
# [5] = tested on: UO-31 renal
# [6] = tested on: SF-295 CNS
# [7] = tested on: M14 melanoma
# [8] = tested on: NCI-H460 lung
# [9] = tested on: MOLT-4 leukemia
# [10] = tested on: OVCAR-8 ovarian
Compound,GI50 [1],TGI [1] [µM],GI50 [2],TGI [2],GI50 [3],TGI [3],GI50 [4],TGI [4] [µM],GI50 [5],TGI [5] [µM],GI50 [6],TGI [6],GI50 [7],TGI [7] [µM],GI50 [8],TGI [8] [µM],GI50 [9],TGI [9] [µM],GI50 [10],TGI [10] [µM]
COc1cc(C2CC(=O)Nc3c2c(C)nn3-c2nc3ccccc3[nH]2)cc(OC)c1O (stereo not given),2.46 µM,7.16,3.45 µM,16.9 µM,2.6 µM,6.09 µM,3.72 µM,17,2.49 µM,7.7,1.33 µM,3.71 µM,2.12 µM,5.53,3.19 µM,> 35.1,0.0427 µM,0.242,3.4 µM,> 32.1
COc1ccc2c(c1)C(c1cc(OC)c3c(c1)OCO3)C1=C(COC1=O)N2 (stereo not given),0.389 µM,4.8,6.67 µM,> 100 µM,2.08 µM,> 100 µM,0.397 µM,> 47.5,5.05 µM,> 100,0.0919 µM,> 34 µM,0.233 µM,0.742,0.348 µM,> 20.4,0.51 µM,> 100,0.504 µM,> 40.7
O=C1NC(=NCCc2ccccn2)S/C1=C\c1ccc2ncccc2c1,11 µM,> 25,11 µM,> 25 µM,10.5 µM,> 25 µM,13.9 µM,> 25,7.91 µM,24.3,> 16.1 µM,> 25 µM,12.7 µM,> 25,8.27 µM,> 25,8.04 µM,22.6,12.6 µM,> 25
Cn1c(=O)c(Oc2ccc(F)cc2F)cc2cnc(NC3CCOCC3)nc21,> 25 µM,> 25,> 25 µM,> 25 µM,> 25 µM,> 25 µM,> 25 µM,> 25,8.06 µM,> 19.3,> 25 µM,> 25 µM,> 25 µM,> 25,> 25 µM,> 25,> 25 µM,> 25,> 25 µM,> 25
CC1(C)CCC(C)(C)c2cc(NC(=O)c3ccc(C(=O)O)cc3)ccc21,–,> 79.5,–,> 100 µM,–,68.1 µM,–,> 57.6,–,39.5,–,68.2 µM,–,> 65.1,–,> 62.7,–,> 100,–,> 100
CC1Cc2ccccc2N1C(=O)Cc1nc(N2CCOCC2)cc(=O)[nH]1 (stereo not given),36.4 µM and 32.5 µM,> 100,1.6 µM and 3.73 µM,42.6 µM and 99.7 µM,1.37 µM and 5.58 µM,57.2 µM and > 94.7 µM,53.8 µM and 59.9 µM,> 100,2.26 µM and 3.28 µM,> 100,3.15 µM and 6.95 µM,> 100 µM and 97.7 µM,13.8 µM and 27 µM,> 100,17.2 µM and 32 µM,> 100,15.8 µM and 27.5 µM,> 100,34.8 µM and 32 µM,> 100
O=c1oc2ccc(Br)cc2c(=O)n1-c1ccc(Cl)cc1F,1.43 µM,5.11,0.597 µM,5.65 µM,0.48 µM,2.49 µM,2.17 µM,9.13,0.349 µM,3.03,1.78 µM,3.54 µM,0.925 µM,6.24,0.739 µM,10.7,1.7 µM,5.22,1.7 µM,> 26.2
COc1cc2nc3cc([N+](=O)[O-])ccc3c(NCCNCC(C)O)c2cc1OC (stereo not given),1.05 µM,3.18,0.365 µM,2.33 µM,1.75 µM,3.9 µM,0.713 µM,2.87,1.67 µM,5.84,0.484 µM,3.34 µM,1.25 µM,2.96,0.366 µM,1.6,0.353 µM,6.21,0.587 µM,3.13
CNC(=O)c1cccc(C#Cc2cncnc2Nc2ccc(OCc3cccc(F)c3)c(Cl)c2)c1,5.8 µM,> 17.9,3.18 µM,15.7 µM,8.56 µM,> 25 µM,5.03 µM,10.4,1.58 µM,> 25,5.45 µM,20.5 µM,10.7 µM,> 25,5.04 µM,12.9,> 25 µM,> 25,7.3 µM,> 25
O=S(=O)(NCCCNc1cc(-c2cn(-c3ccccc3)nc2-c2cccc(O)c2)ccn1)c1ccc(Br)cc1,2.32 µM,8.66,1.76 µM,6.38 µM,1.68 µM,4.32 µM,1.88 µM,4.59,2.17 µM,8.95,1.36 µM,3.09 µM,1.78 µM,3.78,1.77 µM,3.72,1.13 µM,3.73,2.45 µM,9.29
CN(C)CCOc1ccccc1NC1=C(Cl)C(=O)C(Nc2ccccc2OCCN(C)C)=C(Cl)C1=O,23.6 µM,> 57.9,0.811 µM,3.16 µM,20.7 µM,> 49.7 µM,39.1 µM,> 100,0.735 µM,2.22,> 38.4 µM,> 65.9 µM,> 27 µM,> 84.6,27.8 µM,> 96.4,0.694 µM,1.91,4.16 µM,20.7
C=CCOC(=O)Nc1cccn([C@H](CC(C)C)C(=O)NCCC(C)C)c1=O,> 100 µM,> 100,68.2 µM,> 100 µM,> 100 µM,> 100 µM,> 100 µM,> 100,27.5 µM,> 100,18.7 µM,> 100 µM,> 100 µM,> 100,> 100 µM,> 100,61.9 µM,> 100,> 100 µM,> 100
Cc1ccc(OCCOCCOCCOCCOCCOc2ccc(C)n(O)c2=S)c(=S)n1O,0.0576 µM,14.7,0.0402 µM,> 100 µM,0.103 µM,> 64.5 µM,0.0789 µM,> 84.6,0.0377 µM,2.02,0.0378 µM,> 43.6 µM,0.0619 µM,0.43,0.0252 µM,11.6,0.0422 µM,> 100,0.0384 µM,> 100
CN(C)CCS(=O)(=O)Nc1cc(-c2ccc3ncc(C#N)c(Nc4ccc(F)c(Cl)c4)c3c2)cnc1Cl,0.281 µM,2.59,0.0732 µM,0.65 µM,0.107 µM,0.485 µM,0.248 µM,> 22.7,0.188 µM,1.29,0.366 µM,2.4 µM,0.255 µM,1.27,0.612 µM,3.72,0.12 µM,0.547,0.387 µM,> 32.6
COc1cc(CCC(=O)NC[C@@H](O)c2ccccc2)ccc1O,> 100 µM,> 100,> 100 µM,> 100 µM,> 100 µM,> 100 µM,> 100 µM,> 100,> 100 µM,> 100,> 100 µM,> 100 µM,> 100 µM,> 100,> 100 µM,> 100,> 100 µM,> 100,> 100 µM,> 100
NCCSC(c1ccccc1)(c1ccccc1)c1ccccc1,4.79 µM,22.7,2.62 µM,8.42 µM,3.51 µM,14.2 µM,2.43 µM,14.2,2.03 µM,12.9,0.967 µM,2.76 µM,0.354 µM,1.15,1.31 µM,4.01,2.3 µM,7.1,0.989 µM,7
CN1C(=O)C2(c3ccccc31)C1CC3C(CO1)C1C2C3(CO)CN1C#N (stereo not given),–,> 100,–,> 100 µM,–,> 100 µM,–,> 100,–,> 100,–,> 100 µM,–,> 100,–,> 100,–,> 100,–,> 100
COc1ccc(Cn2cc3c(c2-c2cc(OC)c(OC)c(OC)c2)CCc2c(CO)noc2-3)cc1,2.94 µM,38.2,0.376 µM,59.3 µM,0.608 µM,7.34 µM,0.397 µM,25.7,0.639 µM,22.4,0.225 µM,15.2 µM,0.215 µM,2.88,0.341 µM,13.6,0.458 µM,27.8,0.417 µM,19.6
CCC1(c2ccc(N)cc2)CCC(=O)NC1=O (stereo not given),–,> 4820,–,> 4730 µM,–,> 5000 µM,–,> 1580,–,> 3950,–,> 3870 µM,–,> 4560,–,> 5000,–,> 3750,–,> 5000
COc1ccc2nc3cccc([N+](=O)[O-])c3c(NC(C)CN(C)C)c2c1 (stereo not given),1.75 µM,4.1,5.52 µM,36 µM,2.86 µM,6.74 µM,1.18 µM,2.96,1.7 µM,3.62,2.37 µM,10.1 µM,1.41 µM,2.8,0.51 µM,3.73,1.23 µM,4.13,1.54 µM,7.64
COc1cc(/C=C/C(=O)c2c(-c3ccc(F)cc3)nc3sc(C)nn23)cc(OC)c1OC,2.46 µM,8.3,2.09 µM,7.57 µM,2.55 µM,7.09 µM,2.28 µM,7.06,1.95 µM,4.94,4.03 µM,15.9 µM,3.05 µM,8.1,1.94 µM,4.08,2.3 µM,6.72,2.48 µM,12.9
O=C(O)Cc1ccc(N=Nc2c(O)c(C(=O)O)cc3ccccc23)cc1,–,> 100,–,> 100 µM,–,> 100 µM,–,> 100,–,> 100,–,> 100 µM,–,> 100,–,> 100,–,> 100,–,> 100
O=C1c2c(Cl)c(Cl)c(Cl)c(Cl)c2C(=O)C2(Cl)CC=CCC12Cl (stereo not given),1.97 µM,4.88,1.74 µM,4.01 µM,1.85 µM,3.38 µM,1.86 µM,3.65,1.71 µM,3.28,3.35 µM,11.2 µM,1.67 µM,3.19,3.09 µM,11,2.39 µM,6.36,1.64 µM,3.12
O=C(c1ccccc1)c1nc2ccc(C(F)(F)F)cc2nc1N1CCN(c2ccccc2)CC1,18.2 µM,46.9,21.8 µM,48.9 µM,32 µM,84.5 µM,60.9 µM,> 100,31.7 µM,> 100,42.8 µM,> 100 µM,23.2 µM,55.3,52.1 µM,> 100,24.6 µM,> 100,41.8 µM,> 100
O=[N+]([O-])c1ccc2c(c1)C(c1ccccc1Cl)=Nc1c(n[nH]c1-c1cccnc1)N2,> 25 µM,> 25,> 25 µM,> 25 µM,> 25 µM,> 25 µM,> 25 µM,> 25,> 25 µM,> 25,> 25 µM,> 25 µM,> 25 µM,> 25,> 25 µM,> 25,> 25 µM,> 25,> 25 µM,> 25
CN(C)C=Nc1c(I)cc(I)c(CCC(=O)O)c1I,> 100 µM,> 100,> 100 µM,> 100 µM,> 100 µM,> 100 µM,> 100 µM,> 100,> 100 µM,> 100,> 100 µM,> 100 µM,> 100 µM,> 100,> 100 µM,> 100,> 100 µM,> 100,> 100 µM,> 100
